Source: PubChem BioAssay (NCI)
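Five compound concentrations were applied to cells in 96-well plates for 48 hours; endpoints were derived by simple linear interpolation of the resulting dose-response curve. TGI: concentration producing complete growth inhibition.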

Tests used:
Assay in all cases: inhibition of tumour cell growth, NCI panel, 48 h
786-0 renal = system: 786-0 renal
A498 renal = system: A498 renal
A549 NSCLC = system: A549 NSCLC
ACHN renal = system: ACHN renal
CAKI-1 renal = system: CAKI-1 renal
CCRF-CEM leukemia = system: CCRF-CEM leukemia
COLO 205 colon = system: COLO 205 colon
DLD-1 colon = system: DLD-1 colon
DMS 114 small cell lung = system: DMS 114 small cell lung
DMS 273 small cell lung = system: DMS 273 small cell lung
EKVX NSCLC = system: EKVX NSCLC
HCC-2998 colon = system: HCC-2998 colon
HCT-116 colon = system: HCT-116 colon
HCT-15 colon = system: HCT-15 colon
HL-60(TB) leukemia = system: HL-60(TB) leukemia
HOP-18 NSCLC = system: HOP-18 NSCLC
HOP-62 NSCLC = system: HOP-62 NSCLC
HT29 colon = system: HT29 colon
IGROV1 ovarian = system: IGROV1 ovarian
K-562 leukemia = system: K-562 leukemia
KM12 colon = system: KM12 colon
KM20L2 colon = system: KM20L2 colon
LOX IMVI melanoma = system: LOX IMVI melanoma
LXFL 529 NSCLC = system: LXFL 529 NSCLC
M14 melanoma = system: M14 melanoma
M19-MEL melanoma = system: M19-MEL melanoma
MALME-3M melanoma = system: MALME-3M melanoma
MOLT-4 leukemia = system: MOLT-4 leukemia
NCI-H226 lung = system: NCI-H226 lung
NCI-H23 lung = system: NCI-H23 lung
NCI-H460 lung = system: NCI-H460 lung
NCI-H522 lung = system: NCI-H522 lung
OVCAR-3 ovarian = system: OVCAR-3 ovarian
OVCAR-4 ovarian = system: OVCAR-4 ovarian
OVCAR-5 ovarian = system: OVCAR-5 ovarian
OVCAR-8 ovarian = system: OVCAR-8 ovarian
RPMI-8226 leukemia = system: RPMI-8226 leukemia
RXF 393 renal = system: RXF 393 renal
RXF-631 renal = system: RXF-631 renal
SF-268 CNS = system: SF-268 CNS
SF-295 CNS = system: SF-295 CNS
SF-539 CNS = system: SF-539 CNS
SK-MEL-2 melanoma = system: SK-MEL-2 melanoma
SK-MEL-28 melanoma = system: SK-MEL-28 melanoma
SK-MEL-5 melanoma = system: SK-MEL-5 melanoma
SK-OV-3 ovarian = system: SK-OV-3 ovarian
SN12C renal = system: SN12C renal
SNB-19 CNS = system: SNB-19 CNS
SNB-75 CNS = system: SNB-75 CNS
SNB-78 CNS = system: SNB-78 CNS
SR leukemia = system: SR leukemia
SW-620 colon = system: SW-620 colon
TK-10 renal = system: TK-10 renal
U251 CNS = system: U251 CNS
UACC-257 melanoma = system: UACC-257 melanoma
UACC-62 melanoma = system: UACC-62 melanoma
UO-31 renal = system: UO-31 renal
XF 498 CNS = system: XF 498 CNS

## Cc1c(NC(=O)/C(=N/NC(=S)N=N)C2C(=O)CC(C)(C)CC2=O)c(O)c2ccccc2c1O
786-0 renal
  TGI: 27.2 µM
A498 renal
  TGI: 35.7 µM
A549 NSCLC
  TGI: 21.7 µM
ACHN renal
  TGI: 26.8 µM
CAKI-1 renal
  TGI: 37.6 µM
CCRF-CEM leukemia
  TGI: 21.1 µM
COLO 205 colon
  TGI: 25.5 µM
DLD-1 colon
  TGI: 20.7 µM
DMS 114 small cell lung
  TGI: 4.17 µM
DMS 273 small cell lung
  TGI: 22.4 µM
EKVX NSCLC
  TGI: 32.2 µM
HCC-2998 colon
  TGI: 23.3 µM
HCT-116 colon
  TGI: 13.7 µM
HCT-15 colon
  TGI: 18.8 µM
HL-60(TB) leukemia
  TGI: 22.7 µM
HOP-18 NSCLC
  TGI: 30.4 µM
HOP-62 NSCLC
  TGI: 36 µM
HT29 colon
  TGI: 33.6 µM
IGROV1 ovarian
  TGI: 19.8 µM
K-562 leukemia
  TGI: 62.8 µM
KM12 colon
  TGI: 22.1 µM
KM20L2 colon
  TGI: 40.4 µM
LOX IMVI melanoma
  TGI: 12 µM
LXFL 529 NSCLC
  TGI: 23.7 µM
M14 melanoma
  TGI: 18.5 µM
M19-MEL melanoma
  TGI: 2.95 µM
MALME-3M melanoma
  TGI: 29.6 µM
MOLT-4 leukemia
  TGI: 15.7 µM
NCI-H226 lung
  TGI: 27.7 µM
NCI-H23 lung
  TGI: 11.9 µM
NCI-H460 lung
  TGI: 64.9 µM
NCI-H522 lung
  TGI: 8.39 µM
OVCAR-3 ovarian
  TGI: 6.5 µM
OVCAR-4 ovarian
  TGI: 27 µM
OVCAR-5 ovarian
  TGI: 36.9 µM
OVCAR-8 ovarian
  TGI: 17.6 µM
RPMI-8226 leukemia
  TGI: 56.7 µM
RXF 393 renal
  TGI: 33.2 µM
RXF-631 renal
  TGI: 31.7 µM
SF-268 CNS
  TGI: 21.7 µM
SF-295 CNS
  TGI: 27.6 µM
SF-539 CNS
  TGI: 12.4 µM
SK-MEL-2 melanoma
  TGI: 26.1 µM
SK-MEL-28 melanoma
  TGI: 26.4 µM
SK-MEL-5 melanoma
  TGI: 11.3 µM
SK-OV-3 ovarian
  TGI: 36.9 µM
SN12C renal
  TGI: 20.1 µM
SNB-19 CNS
  TGI: 26.5 µM
SNB-75 CNS
  TGI: 45.6 µM
SNB-78 CNS
  TGI: 58.8 µM
SR leukemia
  TGI: 14.9 µM
SW-620 colon
  TGI: 22.3 µM
TK-10 renal
  TGI: 35.6 µM
U251 CNS
  TGI: 14 µM
UACC-257 melanoma
  TGI: 14 µM
UACC-62 melanoma
  TGI: 6 µM
UO-31 renal
  TGI: 25.4 µM
XF 498 CNS
  TGI: 28.9 µM
